The source of these data is patent publication US20230218589A1, “COMPOUND FOR PREVENTION OR TREATMENT OF A SKIN CANCER OR SKIN PRECANCER” (UNIQUEST PTY LTD, priority 2020, published 2023).

The target in one test is FKBP12 enzyme (Homo sapiens, UniProt P62942). Description: TR-FRET assay, competition for tacrolimus (FK506) binding to FKBP12. As to conditions: 8-point dilution 0.001 nM to 10 μM, 30 min room temperature.
Test [1] has as its system 5117-RE (spindle cell sarcoma) cells. Description: Mouse back 5117-RE tumour model (spindle cell sarcoma, Kaposi sarcoma model). Type of test: in vivo. The protocol:
Tacrolimus diet: All customised mice diet was manufactured by Specialty Feeds (Perth, Wash.). Briefly, tacrolimus (MedChemExpress) was mixed with caster sugar and then incorporated into standard mouse diet. […] Food colouring was added to distinguish the drug. During the manufacturing process the pellets were air-dried overnight rather than dried in an oven in order to minimise the amount of heat applied. The final product was sealed in airtight bags and stored at 4° C. protected from light to ensure minimal degradation. Pellet volumes in feed hoppers were kept to a minimum and restocked every 3-4 days for the duration of the experiments.
Compound 1 preparation: Compound 1 (Cmpd 1) was prepared at the beginning of each dosing week as a 1 or 2 mg/mL solution as required in 4% ethanol/0.2% Tween-80/PBS. Compound 1 solution was stored at 4° C. for up to one week.
Mouse back 5117-RE tumour model: Method as per the above section (Mouse back cSCC tumour model), with the following changes; BALBc mice were used, and 5117-RE cells were cultured and passaged for 1 week prior to tumour cell injection in RPMI media (Gibco) supplemented with 10% heat inactivated FBS (Gibco) and 1× Penicillin/Streptomycin/Glutamine (Gibco).
Dissociation of tumour cells for FACS analysis: To release cells from tumours, harvested tissue was cut into small fragments and digested for 60 min at 37° C. in RPMI media containing 2% FBS, 3 mg/mL collagenase D and 5 ug/mL DNase I. Tissues were then gently pressed through a 70 μm cell strainer to create a single-cell suspension. […]
FACS analysis: Stained tumour dissociated cells were then washed twice, resuspended in FACS buffer and Flow cytometric analysis was performed using LSR Fortessa X20 (BD Biosciences) flow cytometers with FACSDiva. software (Becton Dickinson, Sparks, Md., USA). Data were exported and analyzed using FlowJo software (I'reestar Inc., Ashland, Oreg., USA).
Mice were injected sub-cutaneously with 1×10^6 5117-RE (spindle cell sarcoma) cells into the lower back and tumour size was monitored 3 times a week throughout the experiment. […]

Another test concerns HPV38-E6/E7 SCC cells. Kind of test: Mouse back cSCC tumour model, tacrolimus diet, intra-tumoural injection. Conditions: in vivo.
Test [2] relates to chemically (TPA+DMBA) induced tumour formation. As to conditions: topical application, mouse model (Jiang et al. 1993); cited from earlier work.

Sequence of FKBP12 enzyme (P62942 whole entry, species assumed): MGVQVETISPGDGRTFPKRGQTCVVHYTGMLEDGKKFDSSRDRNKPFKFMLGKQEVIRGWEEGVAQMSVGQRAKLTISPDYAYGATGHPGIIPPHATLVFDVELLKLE
Method for FKBP12 enzyme: The FKBP12 enzyme used in the assay is tagged with a polyhistidine sequence. An anti-6xHis antibody, labelled with a fluorescent donor, F(d), binds the tagged enzyme. The enzyme ligand, FK506 is tagged with a fluorescent acceptor, F(a) and binds the enzyme. […] In the presence of a test inhibitor which competes for FK506, the complex is disrupt& and is no longer in close proximity, resulting in emission at wavelength A due to the F(d). […] The inhibitors were added to the master mix in the assay plate containing the enzyme/antibody/ligand complex, with a final detergent concentration of 0.005%. The reaction was incubated for 30 min at room temperature and then read on a SpectraMax M5 (Molecular Devices) at wavelengths A (615 nm) and B (665 nm). The ratio between light emission (wavelength B/A) is calculated and the blank subtracted values were plotted against the inhibitor concentration in Logio molar and fitted using one site Ki non-linear regression to determine the Kd of the bound test inhibitor.

Turning to `CC[C@@H]1/C=C(\C)[C@@H](O)[C@H](C)C[C@H](OC)[C@H]2O[C@@](O)(C(=O)C(=O)N3CCCC[C@H]3C(=O)O[C@H](/C(C)=C/[C@@H]3CC[C@@H](O)[C@H](OC)C3)[C@H](C)[C@@H](O)CC1=O)[C@H](C)C[C@@H]2OC` [Compound 1, 17-Ethyl-1,14,20-trihydroxy-12-[2′-(4″-hydroxy-3″-methoxycyclohexyl)-1′-methylvinyl]-23,25-dimethoxy-13,19,21,27-tetramethyl-11,28-dioxa-4-azatricyclo-[22.3.1.0^4,9]octacos-18-ene-2,3,10,16-tetraone], the equilibrium dissociation constant (Kd) at FKBP12 enzyme is 2.8 nM. Moreover, the “tacrolimus dependent-tumour growth compared to the vehicle control” value in test [1] (BALBc mice, BID IT 40 μL of 2 mg/mL, after 10 days treatment, tacrolimus 150 ppm diet) is recorded as “significantly reduced”. For the same compound, in test [1] (after 13 days treatment), the “percentage of TNF alpha+ CD8 T cells isolated from the tumour” value was “significantly increased”. For the same compound, the “percentage of IFN gamma+ CD8 T cells isolated from the tumour” value in test [1] (after 13 days treatment, ex vivo stimulation with CD3/CD28) was “significantly increased”. Besides, in the test on HPV38-E6/E7 SCC cells, the “percentage of CD69+ (activated) CD8 T cells isolated from the tumour” value is listed as “significantly increased”, the “percentage of IFN gamma+ CD8 T cells isolated from the tumour” value was “significantly increased”, the “percentage of TNF alpha+ CD8 T cells isolated from the tumour” value is recorded as “significantly increased” and the “tacrolimus dependent-tumour growth compared to the vehicle control” value is recorded as “significantly reduced”. In the test with HPV38-E6/E7 SCC cells, the “tacrolimus dependent-tumour growth compared to the vehicle control, without CD8 depletion” value is “significantly reduced” and the “tumour regression after CD8 depletion” value is reported as “no longer able cause tumour regression”.
For the compound `C=CC[C@@H]1/C=C(\C)C[C@H](C)C[C@H](OC)[C@H]2O[C@@](O)(C(=O)C(=O)N3CCCC[C@H]3C(=O)O[C@H](/C(C)=C/[C@@H]3CC[C@@H](O)[C@H](OC)C3)[C@H](C)[C@@H](O)CC1=O)[C@H](C)C[C@@H]2OC` [tacrolimus, reference compound], the “reduction of chemically (TPA+DMBA) induced tumour formation” value in test [2] is 80%.
